Columns and labels:
Aβ / γ-secretase = assay: Aβ levels in primary rat cortical neurons infected with Semliki Forest virus encoding human APP695, C99 or C111; assay type: cell-based
Description: The mechanism of Aβ modulation was tested using C99 (and C111) that are truncated constructs generated from APP. Unlike APP, C99/C111 are direct substrates for γ-secretase. With both constructs it is possible to directly assay for γ-secretase activity, while with APP this is not possible. Both constructs are—as compared to APP—inefficient substrates for […]. Synergistc effects were also evaluated with CDX (methyl-β-cyclodextrin), an agent which extracts cholesterol from the plasma membrane. CDX inhibits also Aβ production CDX-treated cells were treated in addition to the respective muscarinic agonist for 5 min to reduce the cholesterol content.

β-catenin = β-catenin levels in rat hippocampal neurons; assay type: cell-based; settings: 100 μM; Aβ1-40 5 μM
Description: This study was performed in rat hippocampal primary cell cultures using the methods described by Garrido J L et al. (FASEB J 2002; 16:1982).

[1] = Chronic oral toxicity up to 13 weeks, rat; assay type: in vivo, Wistar rat
[2] = Working memory (MWM) in ischemic rats; assay type: in vivo, rat; settings: 0.5 mg/kg po chronic, vs DDW
Description: This was done by a bilateral carotid artery occlusion in Sprague Dawley rats: […] Ischemia was induced in 21 rats whereas the other 21 rats served as sham controls. Under pentobarbital anasthesia (30 mg/kg, ip), sodium nitropruside 4.8 mg/kg/hr) was infused through a cannula implanted in the tail vein, for a period of 25 min. […] Immediately afterwards 1.8 mEq sodium bicarbonate solution was administerd ip in order to minimize systemic acidosis. The sham operated rats were anesthetized as the ischemic rats and were infused with saline. Their carotid arteries were exposed but were not subject to carotid clamping. […] Animals were allowed to recover for 3 weeks prior to behavioral testing. […] The evaluation of the animals was done using the working-memory matching-to-sample paradigm in the MWM. […] REL and RPL reflect the relative saving in performance from trial no 1 to trial no 2. REL and RPL were analyzed by a 3-way ANOVA (2×2×3), with one repeated variable (weeks) and two non-repeated variables (Operation-ischemia/sham-operated and Treatment-AF150(S)/DDW).

| SMILES | reduction of the release of Aβ-like fragments (3-4 Kda) (Aβ / γ-secretase) | p3 fragment (Aβ / γ-secretase; 1 mM, vs control) | Aβ with cholesterol lowering agent CDX (Aβ / γ-secretase; with CDX (5 mM)) | Aβ1-40-induced degradation of soluble β-catenin (β-catenin) | dose at which (muscarinic) effects are seen [1] | working memory performance (REL and RPL) [2] |
| --- | --- | --- | --- | --- | --- | --- |
| CC[C@@H]1SC2(CCN(C)CC2)NC1=O [AF267B, (S)-2-ethyl-8-methyl-1-thia-4,8-diaza-spiro[4.5]decan-3-one] | approximately 50% | complete loss | undetectable Aβ levels | prevented | > 40 mg/kg |  |
| CC1=NCC2(CCN(C)CC2)S1 [AF150(S), 2,8-Dimethyl-1-thia-3,8-diaza-spiro[4.5]dec-2-ene] |  |  |  |  |  | significantly improved working memory performance |
